“Also recorded” adds a separate entry of the source. Like-named read-outs stand apart in the source and are kept apart here.
Tests used:
Gβ1γ2 = Gβ1γ2 (UniProt P54311+P63212); experiment: Competition phage ELISA: inhibition of SIGK-phage binding to immobilized biotinylated Gβ1γ2; parameters: made in house; host or cells: Sf9 insect cells (baculovirus; co-expressed with BirA and (His)6-Gαi1, from which βγ was eluted); species or system rat
Method: Phage ELISA assays used to assess peptide binding to wild-type and mutant b-βγ were performed according to standard methods (Smrcka and Scott (2002) Methods Enzymol. 344:557-76). Briefly, 1 μg streptavidin was immobilized in the well of a […] overnight at 4° C. The wells were blocked with 100 μL of 2% bovine serum albumin (BSA) in Tris-buffered saline (TBS) for 1 hour at 4° C. followed by three washes of IX TBS/0.5% TWEEN®. […] The wells were washed, followed by the addition of IxIO^6 to IxIO^10 phage particles and incubated at 4° C. for 3 hours. The wells were then washed six times with TBS/0.5% TWEEN® followed by addition of 40 μL of 1:5000 dilution of anti-M13 antibody (Pharmacia, Uppsala, Sweden) and incubated at room temperature for 1 hour. The wells were washed, followed by the addition of 40 μL of (2,2′-Azino-bis (3-ethylbenzthiazoline)-6-sulfonic acid (ABTS) and the colorimetric reaction was monitored at 405 nm. Nonspecific binding was subtracted for each reading.
A phage ELISA assay was used to determine whether small molecules identified in the computational screen could interact with the Gβy protein interaction surface. […] The screen was based on a reduction in the optical density (OD) of wells containing Gβγ subunits and phage. […] Three background wells contained no βy subunits.
As disclosed herein, biotinylated Gβy subunits were immobilized on the surface of a 96-well plate coated with streptavidin, phage displaying Gβγ-binding peptides were subsequently added and binding in the presence and absence of test compounds detected with an anti-phage antibody.
The phage ELISA assay was used to rapidly screen the ability of compounds to bind to the protein interaction “hot spot” based on the method of Scott et. al (Scott et al., 2001). This assay is performed in the presence of detergent (0.5% Tween) to eliminate non-specific compound aggregation artifacts.
Compounds/DMSO and 0.1×10^10 phage were added simultaneously and subsequently incubated for 1 h at room temperature. Plates were then washed with 1× Tris-buffered saline/0.5% Tween 20 and incubated with anti-M13, HRP-conjugated antibody (Amersham, Chalfont St. Giles, Buckinghamshire, UK). Phage binding was determined by monitoring A405 upon addition of 2,2′-azino-bis(3-ethylbenzothiazoline-6-sulfonic acid) (Sigma Aldrich).

[1] = test system: primary human neutrophils; experiment: fMLP-induced chemotaxis of primary human neutrophils (Boyden chamber); assay type: cell-based; conditions: 250 nM fMLP; for effect on fMLP-induced chemotaxis: 10 μM compound or 1 μM wortmannin, result in words
Method: (§1) Differentiated HL60 cells (200 k) were pretreated with 10 μM concentrations of the indicated compound, challenged with 250 nM fMLP, and assayed for chemotaxis in a Boyden chamber for 1 h at 37° C. […] Chemotaxis was quantified as above by subtracting out background cells (0-10 cells) in the absence of chemoattractant to obtain total transmigrated cells (−100 cells GM-CSF+vehicle) and represented as the percentage of GM-CSF-treated control cells. No statistically significant difference from control was seen by ANOVA. […] Primary human neutrophils were isolated from whole blood to ≧80% purity. Neutrophils (2×10^5) were pretreated with gallein (10 μM), M119 (10 μM), M119B (10 μM), or wortmannin (wtmn.) (1 μM) and then challenged with 250 nM fMLP or 10 nM IL-8 to evaluate chemotaxis in a Boyden chamber for 1 h at 37° C. […] NS, not statistically different from control. […] Primary human neutrophils were isolated and treated (250 nM fMLP±gallein) as described above. Chemotaxis was quantified as above by subtracting out background cells to obtain total transmigrated cells and represented as the percentage of fMLP-treated control cells. Data shown are pooled from two independent experiments, each in duplicate, ±S.E.M.
Chemotaxis was assayed using a Boyden chamber (Neuro Probe, Gaithersburg, Md.) using 3-μm polyvinylpyrrolidone-free polycarbonate filters (Neuro Probe). HL60 cells (differentiated for 4 days) were washed with and resuspended in HBSS containing 1% bovine serum albumin to a final concentration of 1×10^6 cells/ml. Primary human neutrophils were washed and resuspended in NaCl buffer (140 mM NaCl, 4 mM KCl, 10 mM D-glucose, 10 mM HEPES, pH 7.4, 1 mM MgCl2, and 1 mM CaCl2) to a final concentration of 1×10^6 cells/mi. Chemoattractant [1 μM granulocyte-macrophage-colony stimulating factor (GM-CSF), 10 nM IL-8, or 250 nM fMLP; Sigma Aldrich] was added to the bottom chamber in HBSS containing 1% bovine serum albumin. Cell suspensions (0.2×10^6 cells/well) were added to the top wells of the Boyden chamber and allowed to migrate for 1 h at 37° C. When applicable, cell suspensions were preincubated for […] with small-molecule inhibitors (in DMSO) at the indicated concentrations, and the bottom chamber was adjusted to the same concentration of small molecule. All treatments contained the same final concentration of DMSO. […] Chemotactic HL60 cells were scored by counting three microscope fields and subtracting the number of cells from fMLP wells as background. […] For all the small molecules, effects of the compounds on chemokinesis was analyzed by measuring chemotaxis in the presence of 250 nM fMLP in both the upper and lower chambers of the Boyden Chamber and measuring changes in transwell migration. […]

[2] = test system: differentiated HL60 cells; experiment: fMLP-induced chemotaxis of differentiated HL60 cells (Boyden chamber); assay type: cell-based, human; conditions: 10 μM compound, 250 nM fMLP; result in words
Method: Same as A with purified human neutrophils.
as §1
Chemotaxis was assayed using a Boyden chamber (Neuro Probe, Gaithersburg, Md.) using 3-μm polyvinylpyrrolidone-free polycarbonate filters (Neuro Probe). HL60 cells (differentiated for 4 days) were washed with and resuspended in HBSS containing 1% bovine serum albumin to a final concentration of 1×10^6 cells/ml. Primary human neutrophils were washed and resuspended in NaCl buffer (140 mM NaCl, 4 mM KCl, 10 mM D-glucose, 10 mM HEPES, pH 7.4, 1 mM MgCl2, and 1 mM CaCl2) to a final concentration of 1×10^6 cells/mi. Chemoattractant [1 μM granulocyte-macrophage-colony stimulating factor (GM-CSF), 10 nM IL-8, or 250 nM fMLP; Sigma Aldrich] was added to the bottom chamber in HBSS containing 1% bovine serum albumin.

Row | Structure (SMILES) | apparent affinity for Gβ1γ2 relative to M119 (Gβ1γ2) | effect on fMLP-induced chemotaxis [1] | effect on fMLP-induced chemotaxis [2] | IC50 (Gβ1γ2; ELISA, Table 19) [µM] | IC50 (Gβ1γ2; IC50 μM, Table 18, compounds identified in Elisa screen) [µM] | IC50 (Gβ1γ2; IC50, Table 8, last row) [µM] | IC50 (Gβ1γ2; IC50 in phage ELISA (SIGK competition)) [µM] | IC50 (Gβ1γ2) [µM] | IC50 ([1]; Homo sapiens, Neutrophil, read-out: IC50 for block of fMLP-dependent chemotaxis) [nM]
1 | O=C(O)C1CCCCC1c1c2ccc(=O)cc-2oc2cc(O)ccc12 (stereo not shown) [Compound M119B] | 1/1000 | no affect | no effect on migration | – | – | – | – | – | –
2 | O=C(O)C1CCCCC1c1c2ccc(=O)c(O)c-2oc2c(O)c(O)ccc12 (stereo not shown) [Compound M119, cyclohexanecarboxylic acid, 2-(4,5,6-trihydroxy-3-oxo-3H-xanthen-9-yl)-(9cl)] | – | significantly inhibited | significantly blunted migration; also recorded: inhibited | 0.2 | 0.2 | 0.1 | 0.2 | – | –
3 | O=C(O)c1ccccc1-c1c2ccc(=O)c(O)c-2oc2c(O)c(O)ccc12 (racemic) [Gallein] | – | significantly inhibited | inhibited | – | – | – | – | 0.2 | ~5000
